Measurements: ChEMBL document CHEMBL3885881, “DrugMatrix”

Organism: Rattus norvegicus
Experiment: DrugMatrix - Regimen: Daily Repeat
Type: toxicity, organism-based, Sprague-Dawley
Parameters: regimen Daily Repeat, gender Male, age 6-8 weeks
Details: in vivo, po, route oral GAVAGE, vehicle 100 % WATER; for ABSOLUTE BASOPHIL / ABSOLUTE EOSINOPHIL / ABSOLUTE LYMPHOCYTE / ABSOLUTE MONOCYTE / ABSOLUTE SEGMENTED NEUTROPHIL / BASOPHIL / EOSINOPHIL / ERYTHROCYTE COUNT / HEMATOCRIT / HEMOGLOBIN / LEUKOCYTE COUNT / LYMPHOCYTE / MEAN CORPUSCULAR HEMOGLOBIN / MEAN CORPUSCULAR HEMOGLOBIN CONCENTRATION / MEAN CORPUSCULAR VOLUME / MONOCYTE / NEUTROPHIL / NUCLEATED RED BLOOD CELLS / PLATELET COUNT: tissue Blood; for ALANINE AMINOTRANSFERASE / ALBUMIN / ALKALINE PHOSPHATASE / ASPARTATE AMINOTRANSFERASE / BLOOD UREA NITROGEN / CARBON DIOXIDE / CHLORIDE / CHOLESTEROL / CREATINE PHOSPHOKINASE / CREATININE / GLUCOSE / LACTATE DEHYDROGENASE / LIPASE / PHOSPHORUS / POTASSIUM / SODIUM / TOTAL BILIRUBIN / TOTAL PROTEIN / URIC ACID: tissue Plasma
[1] = 0 mg/kg, 72 h, dose level Control, time 3 day
[2] = 0 mg/kg, 120 h, dose level Control, time 5 day
[3] = 2200 mg/kg, 72 h, dose level High, time 3 day
[4] = 2200 mg/kg, 120 h, dose level High, time 5 day

For `O.O.O.O.O.O.[Cl-].[Cl-].[Sr+2]` [STRONTIUM CHLORIDE HEXAHYDRATE], the “ABSOLUTE BASOPHIL” value [1] was 0 CELLS/uL, the “ABSOLUTE EOSINOPHIL” value [1] was 151.33 CELLS/uL and the “ABSOLUTE LYMPHOCYTE” value [1] was 10599.5 CELLS/uL. For the same compound, the “ABSOLUTE MONOCYTE” value [1] was 109.5 CELLS/uL, the “ABSOLUTE SEGMENTED NEUTROPHIL” value [1] was 1139.67 CELLS/uL and the BASOPHIL [1] was 0%. The EOSINOPHIL [1] was 0.83%, the “ERYTHROCYTE COUNT” value [1] was 5.54 x10E6/uL and the HEMATOCRIT [1] was 35.35%. For the same compound, the HEMOGLOBIN [1] was 13.22 G/DL, the “LEUKOCYTE COUNT” value [1] was 12 x10E3/uL and the LYMPHOCYTE [1] was 89%. The “MEAN CORPUSCULAR HEMOGLOBIN” value [1] was 23.88 pg, the “MEAN CORPUSCULAR HEMOGLOBIN CONCENTRATION” value [1] was 37.4 G/DL and the “MEAN CORPUSCULAR VOLUME” value [1] was 63.85 fL. For the same compound, the MONOCYTE [1] was 1%, the NEUTROPHIL [1] was 9.17% and the “NUCLEATED RED BLOOD CELLS” value [1] was 0 /100WBC. For the same compound, the “PLATELET COUNT” value [1] was 1333.33 x10E3/uL, the “ALANINE AMINOTRANSFERASE” value [1] was 53.17 u/L and the ALBUMIN [1] was 4.32 G/DL. The “ALKALINE PHOSPHATASE” value [1] was 404.33 u/L, the “ASPARTATE AMINOTRANSFERASE” value [1] was 83.17 u/L and the “BLOOD UREA NITROGEN” value [1] was 15.67 mg/dL. The “CARBON DIOXIDE” value [1] was 27.33 mmol/L, the CHLORIDE [1] was 101.83 MEQ/L and the CHOLESTEROL [1] was 68.67 mg/dL. For the same compound, the “CREATINE PHOSPHOKINASE” value [1] was 276.17 u/L, the CREATININE [1] was 0.18 mg/dL and the GLUCOSE [1] was 163.5 mg/dL. The “LACTATE DEHYDROGENASE” value [1] was 144.67 u/L, the LIPASE [1] was 8.83 u/L and the PHOSPHORUS [1] was 11.72 mg/dL. The POTASSIUM [1] was 5.99 MEQ/L, the SODIUM [1] was 143.57 MEQ/L and the “TOTAL BILIRUBIN” value [1] was 0.2 mg/dL. For the same compound, the “TOTAL PROTEIN” value [1] was 6.1 G/DL, the “URIC ACID” value [1] was 1.38 mg/dL and the “ABSOLUTE BASOPHIL” value [2] was 0 CELLS/uL. The “ABSOLUTE EOSINOPHIL” value [2] was 248.67 CELLS/uL, the “ABSOLUTE LYMPHOCYTE” value [2] was 12977.83 CELLS/uL and the “ABSOLUTE MONOCYTE” value [2] was 19.67 CELLS/uL. The “ABSOLUTE SEGMENTED NEUTROPHIL” value [2] was 1137.17 CELLS/uL, the BASOPHIL [2] was 0% and the EOSINOPHIL [2] was 1.67%. For the same compound, the “ERYTHROCYTE COUNT” value [2] was 5.82 x10E6/uL, the HEMATOCRIT [2] was 36.35% and the HEMOGLOBIN [2] was 13.58 G/DL. The “LEUKOCYTE COUNT” value [2] was 14.38 x10E3/uL, the LYMPHOCYTE [2] was 90.5% and the “MEAN CORPUSCULAR HEMOGLOBIN” value [2] was 23.32 pg. For the same compound, the “MEAN CORPUSCULAR HEMOGLOBIN CONCENTRATION” value [2] was 37.42 G/DL, the “MEAN CORPUSCULAR VOLUME” value [2] was 62.42 fL and the MONOCYTE [2] was 0.17%. The NEUTROPHIL [2] was 7.67%, the “NUCLEATED RED BLOOD CELLS” value [2] was 0 /100WBC and the “PLATELET COUNT” value [2] was 1337.67 x10E3/uL. The “ALANINE AMINOTRANSFERASE” value [2] was 48.5 u/L, the ALBUMIN [2] was 4.32 G/DL and the “ALKALINE PHOSPHATASE” value [2] was 354.33 u/L. For the same compound, the “ASPARTATE AMINOTRANSFERASE” value [2] was 80 u/L, the “BLOOD UREA NITROGEN” value [2] was 16 mg/dL and the “CARBON DIOXIDE” value [2] was 27.33 mmol/L. The CHLORIDE [2] was 100.33 MEQ/L, the CHOLESTEROL [2] was 68 mg/dL and the “CREATINE PHOSPHOKINASE” value [2] was 325.17 u/L. For the same compound, the CREATININE [2] was 0.23 mg/dL, the GLUCOSE [2] was 172 mg/dL and the “LACTATE DEHYDROGENASE” value [2] was 254.83 u/L. It also gave an LIPASE [2] of 8.33 u/L, a PHOSPHORUS [2] of 12.17 mg/dL and a POTASSIUM [2] of 6.28 MEQ/L. The SODIUM [2] was 143.57 MEQ/L, the “TOTAL BILIRUBIN” value [2] was 0.18 mg/dL and the “TOTAL PROTEIN” value [2] was 6.12 G/DL. The “URIC ACID” value [2] was 1.78 mg/dL, the “ABSOLUTE BASOPHIL” value [3] was 0 CELLS/uL and the “ABSOLUTE EOSINOPHIL” value [3] was 196.33 CELLS/uL. The “ABSOLUTE LYMPHOCYTE” value [3] was 12931 CELLS/uL, the “ABSOLUTE MONOCYTE” value [3] was 96.33 CELLS/uL and the “ABSOLUTE SEGMENTED NEUTROPHIL” value [3] was 1409.67 CELLS/uL. For the same compound, the BASOPHIL [3] was 0%, the EOSINOPHIL [3] was 1.33% and the “ERYTHROCYTE COUNT” value [3] was 5.23 x10E6/uL. For the same compound, the HEMATOCRIT [3] was 33.33%, the HEMOGLOBIN [3] was 12.6 G/DL and the “LEUKOCYTE COUNT” value [3] was 14.63 x10E3/uL. For the same compound, the LYMPHOCYTE [3] was 88.33%, the “MEAN CORPUSCULAR HEMOGLOBIN” value [3] was 24.13 pg and the “MEAN CORPUSCULAR HEMOGLOBIN CONCENTRATION” value [3] was 37.8 G/DL. The “MEAN CORPUSCULAR VOLUME” value [3] was 63.8 fL, the MONOCYTE [3] was 0.67% and the NEUTROPHIL [3] was 9.67%. The “NUCLEATED RED BLOOD CELLS” value [3] was 0 /100WBC, the “PLATELET COUNT” value [3] was 1378.33 x10E3/uL and the “ALANINE AMINOTRANSFERASE” value [3] was 57.67 u/L. The ALBUMIN [3] was 4.13 G/DL, the “ALKALINE PHOSPHATASE” value [3] was 643.67 u/L and the “ASPARTATE AMINOTRANSFERASE” value [3] was 69.33 u/L. For the same compound, the “BLOOD UREA NITROGEN” value [3] was 15.33 mg/dL, the “CARBON DIOXIDE” value [3] was 26.33 mmol/L and the CHLORIDE [3] was 104.67 MEQ/L. The CHOLESTEROL [3] was 80 mg/dL, the “CREATINE PHOSPHOKINASE” value [3] was 192.67 u/L and the CREATININE [3] was 0.19 mg/dL. The GLUCOSE [3] was 177 mg/dL, the “LACTATE DEHYDROGENASE” value [3] was 86.33 u/L and the LIPASE [3] was 8.33 u/L. The PHOSPHORUS [3] was 12.27 mg/dL, the POTASSIUM [3] was 6.12 MEQ/L and the SODIUM [3] was 145.67 MEQ/L. The “TOTAL BILIRUBIN” value [3] was 0.27 mg/dL, the “TOTAL PROTEIN” value [3] was 5.8 G/DL and the “URIC ACID” value [3] was 1.97 mg/dL. For the same compound, the “ABSOLUTE BASOPHIL” value [4] was 0 CELLS/uL, the “ABSOLUTE EOSINOPHIL” value [4] was 176 CELLS/uL and the “ABSOLUTE LYMPHOCYTE” value [4] was 13256.67 CELLS/uL. The “ABSOLUTE MONOCYTE” value [4] was 0 CELLS/uL, the “ABSOLUTE SEGMENTED NEUTROPHIL” value [4] was 1734 CELLS/uL and the BASOPHIL [4] was 0%. For the same compound, the EOSINOPHIL [4] was 1%, the “ERYTHROCYTE COUNT” value [4] was 5.42 x10E6/uL and the HEMATOCRIT [4] was 34.13%. For the same compound, the HEMOGLOBIN [4] was 13.03 G/DL, the “LEUKOCYTE COUNT” value [4] was 15.17 x10E3/uL and the LYMPHOCYTE [4] was 87.33%. The “MEAN CORPUSCULAR HEMOGLOBIN” value [4] was 24.13 pg, the “MEAN CORPUSCULAR HEMOGLOBIN CONCENTRATION” value [4] was 38.23 G/DL and the “MEAN CORPUSCULAR VOLUME” value [4] was 63.13 fL. The MONOCYTE [4] was 0%, the NEUTROPHIL [4] was 11.67% and the “NUCLEATED RED BLOOD CELLS” value [4] was 0 /100WBC. The “PLATELET COUNT” value [4] was 1262.67 x10E3/uL, the “ALANINE AMINOTRANSFERASE” value [4] was 42.33 u/L and the ALBUMIN [4] was 3.97 G/DL. For the same compound, the “ALKALINE PHOSPHATASE” value [4] was 573.67 u/L, the “ASPARTATE AMINOTRANSFERASE” value [4] was 58.67 u/L and the “BLOOD UREA NITROGEN” value [4] was 16.67 mg/dL. For the same compound, the “CARBON DIOXIDE” value [4] was 29 mmol/L, the CHLORIDE [4] was 99 MEQ/L and the CHOLESTEROL [4] was 78 mg/dL. For the same compound, the “CREATINE PHOSPHOKINASE” value [4] was 220 u/L, the CREATININE [4] was 0.2 mg/dL and the GLUCOSE [4] was 155.33 mg/dL. The “LACTATE DEHYDROGENASE” value [4] was 172.33 u/L, the LIPASE [4] was 8.67 u/L and the PHOSPHORUS [4] was 11.03 mg/dL. The POTASSIUM [4] was 6.01 MEQ/L, the SODIUM [4] was 142.9 MEQ/L and the “TOTAL BILIRUBIN” value [4] was 0.17 mg/dL. The “TOTAL PROTEIN” value [4] was 5.67 G/DL and the “URIC ACID” value [4] was 1.5 mg/dL.
